Test [1] concerns Lipoxygenase (leukotriene B4 biosynthesis in human PMN leucocytes). Put plainly: Lipoxygenase inhibition: inhibition of leukotriene B4 biosynthesis in human PMN leucocytes. Type of test: cell-based. As for the experimental part: The human PMN leucocytes (95%) used in the present example were obtained from heparinized complete blood by dextran sedimentation and subsequent density gradient separation (Ficoll-Paque) (compare A. Boyum, Scand. J. Immunol., 5, Suppl. 5, 9, 1976).
2×10^7 cells/ml were suspended in Dulbecco phosphate buffer containing Ca^2+ and were incubated with radioactively labelled arachidonic acid and the calcium ionophor A 23187 in the presence or absence of lipoxygenase inhibitor. After 15 minutes, the labelled lipoxygenase products were extracted from the acidified incubation medium and were separated by thin layer chromatography using a mobile phase mixture suitable for the leukotrienes (5-HETE-LTB4) (compare B. Jakschik et al., Biochem.Biophys.Res.Commun., 102, 624, 1981).
The distribution of the activity amongst the various metabolites was measured by a thin layer scanner. It is a measure of the lipoxygenase-inhibiting action of a test substance at a certain concentration.
The lipoxygenase metabolites were also additionally determined independently by means of high pressure liquid chromatography. This method enables the endogenous arachidonic acid metabolism to be studied with the aid of UV detection of the leukotrienes. In this method, the cells were treated as described above, with the exception that no radioactively labelled arachidonic acid was added exogenously. The high pressure liquid chromatography was carried out on Lichrosorb RP-18 (5 μm) columns. The mobile phase was methanol/water/glacial acetic acid 69/31/0.01. The flow rate was 1 ml/minute. Leukotriene B4 was determined at 232 nm, in each case by means of UV absorption.

The next test relates to 15-lipoxygenase. The experiment in a line: 15-lipoxygenase inhibition. Type of test: biochemical. The settings on record: concentrations of >10 μg/ml.
In another test the test system is guinea pig lung. Put plainly: Inhibition of methacholine-induced bronchoconstriction in perfused guinea pig lung. The settings on record: 10^-4 g/ml; 0.05 μg/ml of methacholine. The procedure: Nafazatrom can moreover be used for the therapy of pulmonary hypertension, pulmonary embolisms and pulmonary oedemas. […] In this organ, nafazatrom inhibits (by the method of F. P. Luduena et al., Arch. Int. Pharmacodyn. 111, 392, 1957) methacholine-induced bronchoconstriction (see Example 5).
The guinea pig lung was perfused with a physiological buffer solution (Tyrode's solution) containing 0.05 μg/ml of methacholine.

The subject of test [2] is cardiac infarction following ligation of the left coronary artery. Put plainly: Coronary artery ligation in rats: cardiac infarction size and total mortality. Type of test: in vivo, rat (Wistar). The note with it: for Total mortality % / Infarction size, % of total heart: peroral; for reduction of infarction size: treatment after coronary ligature. The source says: Ligation of the left coronary artery of the rat heart and the disorders in cardiac rhythm which thereby occur form a relatively simple model for investigating substances having antiarrhythmic actions and effects on the developing myocardial ischaemia (Clark et al., J. Pharmacol. Meth. 3, 357, 1980). The effects of nafazatrom on antiarrhythmic and antiischaemic properties in conscious rats was investigated in this model. Particular importance was placed on the severity and quantity of disorders in cardiac rhythm which occurred.
Male Wistar rats (250-350 g) were superficially anaesthetized with ether and investigated for rhythm disorders. Animals with rhythm abnormalities before the start of the experiment were excluded. In acute surgery, the animals were again anaesthetized with ether. In the lateral dorsal position, the thorax was opened somewhat to the left alongside the central line and the heart was exteriorized. Close below the left heart auricle, a silk ligature (3-0) was looped through the muscle of the left heart under the anterior coronary artery. Animals which developed rhythm disorders during this procedure were excluded. The left coronary artery was ligatured by the method described by Selye et al. (Angiology 11, 398, 1960), the heart was returned to the thorax and the wound was rapidly closed with thread. Since the thorax had not been opened for longer than about 45 seconds, artificial respiration of the animals was unnecessary. The operation mortality was between 25 and 40% within the first hours, and in particular myocardial haemorrhages, rhythm disorders with ventricular fibrillation, and massive cardiac infractions occurred. In a sham-operatedgroup, the same experimental conditions were investigated, with the exception that the coronary artery remained open. Shortly after the ligature had been made, early rhythm disorders were observed, which were accompanied in some cases (untreated) with ventricular fibrillations. In most cases, this ventricular fibrillation spontaneously turned into uniform sinus rhythm of heart contraction. The disorders in cardiac rhythm were evaluated by the plan described by Clark (see above). Ventricular tachycardia was defined as the result of more than 10 successive rhythm disorders with extrasystoles. Electrocardiographic changes included a rise in the ST segment, a drop in the Q waves and a rise in the QT interval. The total number of ectopic activity in each individual animal was determined by counting the ventricular extrasystoles, including tachycardia and fibrillations.
Three groups were investigated: group I received the diluent (1% strength aqueous Tylose suspension, that is to say methylhydroxyethyl-cellulose) twice daily perorally (0.5 ml/kg) for 10 days and by the same administration and in the same amount, after coronary ligature, for a further 20 days; group II was pretreated with the diluent for 10 days (0.5 ml/kg) and was treated with 30 or 100 mg/kg of nafazatrom (in each case suspended in 0.5 ml/kg of 1% strength Tylose suspension) twice daily perorally for 20 days, after coronary ligature (the first nafazatrom administration was effected immediately after the coronary ligature); group III received the above oral doses of nafazatrom in the course of 10 days before the ligature, and the diluent Tylose suspension for 10 days after the coronary occlusion had been effected. The sham-operated animals remained untreated. The peripheral ECG in the extremities was determined in lead II, and in particular, as a control before the start of treatment, shortly before and during coronary ligature, 10 minutes after coronary ligature had been effected, and--after renewed ether anaesthesia-- between the 2nd and 4th hour after coronary occlusion. Each time, the animals were superficially anaesthetized again with ether when the ECG was recorded. At the end of the treatment period, a last ECG was recorded shortly before the animals were sacrificed. […]

Test [3] concerns v.jugularis, a.carotis and a.femoralis. The note with it: Seuter et al., 1979; cited from earlier work.
Test [4] relates to 15-hydroxyprostaglandin dehydrogenase. The settings on record: Wong and McGiff, 1982; cited from earlier work.

This is an account of results in US4657924A, “Nafazatrom as a lipoxygenase inhibitor” (priority 1983, dated 1987).

The term inhibition denotes the relative decrease from the control value, in per cent.

The structures appear in SMILES notation.

For the compound `CC1=NN(CCOc2ccc3ccccc3c2)C(=O)C1` [nafazatrom, 3-methyl-1-[2-(2-naphthyloxy)-ethyl]-2-pyrazolin-5-one], in test [1] (Homo sapiens, Leucocyte, 1 ug/ml, read-out: Inhibition in % in comparison with the control (leukotriene B4 biosynthesis)), the inhibition at 1 µg/mL was determined as 30%. Further, the inhibition at 3 µg/mL in test [1] (Homo sapiens, Leucocyte, 3 ug/ml, read-out: Inhibition in % in comparison with the control (leukotriene B4 biosynthesis)) is 75%. The inhibition at 5 µg/mL in test [1] (Homo sapiens, Leucocyte, 5 ug/ml, read-out: Inhibition in % in comparison with the control (leukotriene B4 biosynthesis)) turned out to be 90%. For the same compound, the inhibition at 10 µg/mL in test [1] (Homo sapiens, Leucocyte, 10 ug/ml, read-out: Inhibition in % in comparison with the control (leukotriene B4 biosynthesis)) worked out at 100%. Moreover, in test [1] (as a function of the concentration), the “concentration range of inhibition of LTB4 biosynthesis” value fell in the range of 1 to 10 µg/mL. The “inhibition of 15-lipoxygenase” value with 15-lipoxygenase was “not inhibited or is even stimulated”. Further, the “inhibition of the rise in perfusion pressure, and hence bronchoconstriction” value with guinea pig lung worked out at 50%. Further, the “total mortality” value in test [2] (after-treated with 30 mg/kg) is recorded as 22%; in test [2] (after-treated with 100 mg/kg) it was 12%. Moreover, in test [2] (both groups (before or after coronary ligature)), the “infarctions in comparison with the control animals treated only with Tylose” value is on record as “significantly smaller”. Besides, the Total mortality % amounted to 24% in test [2] (group II, after-treatment 30 mg/kg, 2 × daily, 20 days); 22% in test [2] (group II, after-treatment 100 mg/kg, 2 × daily, 20 days); 22% in test [2] (group III, pre-treatment 30 mg/kg, 10 days); 12% in test [2] (group III, pre-treatment 100 mg/kg, 10 days). Also, the “Infarction size, % of total heart” value in test [2] (group II, after-treatment 30 mg/kg, 2 × daily, 20 days, 15 animals) was determined as 31.5%; in test [2] (group II, after-treatment 100 mg/kg, 2 × daily, 20 days, 18 animals) it was 26.7%; in test [2] (group III, pre-treatment 30 mg/kg, 10 days, 12 animals), 28.0%; in test [2] (group III, pre-treatment 100 mg/kg, 10 days, 16 animals), 22.7%. Further, the reduction of infarction in test [2] (pre-treatment 30 mg/kg) was found to be 36%; in test [2] (pre-treatment 100 mg/kg), 48%. For the same compound, the “reduction of infarction size” value in test [2] (30 mg/kg) was determined as 28%; in test [2] (100 mg/kg), 39%. In test [3], the antithrombotic effectiveness result is “effective arterially and venously”. Moreover, the “blocking of 15-hydroxyprostaglandin dehydrogenase” value in test [4] is given as “blocks 15-hydroxyprostaglandin dehydrogenase”.
